This is an account of results in US11419902B2, “Compositions comprising bacterial strains” (4D Pharma Research Limited, priority 2018, dated 2022).

The subject of one assay is TJP1 and Occludin. As to the kind of experiment: Ex vivo gene expression in the gut of mice fed with MRx0029. The following applies: colon region of the murine intestine. As to the method: The in vitro results were compared with data from the ex vivo parallel analysis on the gut of mice fed with MRx0029. Gene expression of TJP1 and Occludin was quantified in the colon and ileum. […] Animals were allowed to habituate to their holding room for one week after arrival into the animal unit. They receive oral gavage (200 μL dose) of live biotherapeutics at a dose of 1×10^9 CFU for 6 consecutive days between 15:00 and 17:00. On day 7, the animals are decapitated, and tissues are harvested for experimentation. Animals were sacrificed in a random fashion regarding treatment and testing condition; sampling occurred between 9.00 a.m. and 2:30 p.m. Trunk blood was collected in potassium EDTA (Ethylene Diamine Tetra Acetic Acid) tubes and spun for 15 min at 4000 g. Plasma was isolated and stored at −80° C. for further analysis. The brain was quickly excised, dissected and each brain region was snap-frozen on dry ice and stored at −80° C. for further analysis. Spleen was removed, collected in 5 mL RPMI media (with L-glutamine and sodium bicarbonate, R8758 Sigma+10% FBS (F7524, Sigma)+1% Pen/Strep (P4333, Sigma)) and processed immediately after culls for ex-vivo immune stimulation. […]

The test system of assay [1] is ERK signalling (phosphorylated ERK1 and 2/total ERK). In words: ERK signalling in SKMEL28 cell line (Western blot). The assay is classed as cell-based. The settings on record: SKMEL28, relative to the negative control (YFCA+). As for the experimental part: Following 24 h treatment with the appropriate drugs either in presence of 10% bacterial supernatant or absence (YCFA+), protein extracts were obtained by lysing cells in RIPA buffer (R0278; Sigma Aldrich) supplemented with protease inhibitors (cOmplete Protease Inhibitor Cocktail Tablets; Roche, Switzerland) and 1 mM/L sodium orthovanadate, 0.5 mM/L PMSF. Protein quantification was done by the BCA protein assay. Equal amounts of total protein (20 μg/lane) were then separated by SDS-PAGE on 4-15% gradient gel (BioRad) and transferred to polyvinylidene difluoride (PVDF) membranes (Thermo Fisher Scientific, Loughborough). […]
Proteins of interest were detected with the appropriate HRP-conjugated secondary antibody (1:10,000, Thermo Fisher Scientific, Loughborough), developed with the ECL Western blotting Super Signal PicoPlus substrate (34577; Thermo Fisher Scientific, Loughborough), and visualised in Chemidoc XRS Imager (BioRad).
The effects of the following treatments were assessed on the SKMEL28 melanoma cell line (V600E oncogenic mutation in BRAF): (1) MRx0029; (2) Vemurafenib (VEMU) in YCFA+ medium; (3) VEMU and MRx0029; (4) Azacytidine-C (Aza-c) in YCFA+ medium; (5) Aza-c and MRX0029; (6) VEMU, Aza-c and MRx0029.
For orientation: A western blot detects proteins with antibodies after separation by electrophoresis.

The subject of a further assay is IL-8. In words: IL-8 secretion in HMC3 cells (ELISA). The format is cell-based, Human. The settings on record: 10% cell-free supernatant 24 h, in the absence of stimulation (no TNF-α). As to the method:
Human microglia HMC3 cells were grown in glutamine-supplemented EMEM media containing 15% heat inactivated FBS and 100 U/ml penicillin and 100 μg/ml streptomycin. HMC3 cells were plated in 24 well plates at a density of 50,000 cells/well. Cells were left in CO2 incubator to rest for 48 h. The cells were then washed in blank EMEM and pre-treated in 2% FBS growth media with 10 ng/ml TNF-α for 1 h. Thereafter 10% cell-free bacterial supernatants for NCIMB 42787 stationary growth cultures (isolated as described above) were added to TNF-α-treated and untreated wells and incubated in CO2 incubator at 37° C. for 24 h. Cell-free supernatants were collected and centrifugated at 10,000×g for 3 min and 4° C. Samples were aliquoted in 1.5 ml microtubes and stored in −80° C. for hIL-8 ELISA.
Secretion of IL-8 was analysed using hIL-8 Standard ELISA Kits, according to the manufacturer's protocol in the cell-free supernatants from HMC3 cells treated as described above. Samples were measured at 405 nm with correction wavelength set at 655 nm on a microplate reader (iMark, Bio-Rad). Raw data were plotted and analysed using GraphPad Prism 7 software.
A general note: ELISA stands for enzyme-linked immunosorbent assay.

In the case of Megasphaera massiliensis MRx0029, in the assay on TJP1 and Occludin, the “TJP1 gene expression in the colon” value was “significantly up-regulate”. For the same substance, the ERK signalling entry in assay [1] is “reduced ERK signalling”. Besides, the IL-8 secretion result with IL-8 is “induces IL-8 secretion”.
